Laboratory results reported in ChEMBL document CHEMBL1201862, “PubChem BioAssay data set” (2004).
Active and inactive are the calls of the source.

Columns and labels:
[1] = Mcl1-dependent cancer cell viability – HMC-1-8 cells, luminescence, dry powder, selectivity assay for A1 inhibitor project, dose response (AID 504415); assay type: functional, cell-based; details: Homo sapiens
[2] = test system: INS1; test: beta-cell survival under cytokine stress – INS-1E, ATP luminescence, dry powder, dose response (AID 488844); assay type: functional, cell-based; details: Rattus norvegicus
[3] = test system: INS1; test: suppression of NO production in INS-1E cells – cell-based, Griess absorbance, dry powder, set 2, dose response (AID 488868); assay type: functional; details: Rattus norvegicus
[4] = test system: INS1; test: INS-1E mitochondrial potential rescue under cytokines – cell-based, JC-1 fluorescence ratio, dry powder, dose response (AID 488931); assay type: functional; details: Rattus norvegicus
[5] = target: Megakaryocyte-associated tyrosine-protein kinase (Homo sapiens, UniProt P42679); assay type: functional;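 further: affinity measured as one member of a kinase panel (Navigating the Kinome) against MATK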
[6] = target: Ribosomal protein S6 kinase beta-1 (Homo sapiens, UniProt P23443); assay type: functional;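 further: measured as one member of a kinome-wide profiling panel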
[7] = target: Serine/threonine-protein kinase pim-3 (Homo sapiens, UniProt Q86V86); assay type: functional;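 further: value obtained as one member of a broad kinase panel profiling effort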
[8] = target: MAP kinase-activated protein kinase 3 (Homo sapiens, UniProt Q16644); assay type: functional;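 further: value comes from a kinome-wide profiling panel in which MAPKAPK3 is one of the panel members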
[9] = target: Aurora kinase B (Homo sapiens, UniProt Q96GD4); assay type: functional
[10] = target: Dual specificity tyrosine-phosphorylation-regulated kinase 1A (Homo sapiens, UniProt Q13627); assay type: functional;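 further: measured against DYRK1A as one member of a broad kinome profiling panel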

MAP kinase-activated protein kinase 3, sequence (Q16644 whole entry): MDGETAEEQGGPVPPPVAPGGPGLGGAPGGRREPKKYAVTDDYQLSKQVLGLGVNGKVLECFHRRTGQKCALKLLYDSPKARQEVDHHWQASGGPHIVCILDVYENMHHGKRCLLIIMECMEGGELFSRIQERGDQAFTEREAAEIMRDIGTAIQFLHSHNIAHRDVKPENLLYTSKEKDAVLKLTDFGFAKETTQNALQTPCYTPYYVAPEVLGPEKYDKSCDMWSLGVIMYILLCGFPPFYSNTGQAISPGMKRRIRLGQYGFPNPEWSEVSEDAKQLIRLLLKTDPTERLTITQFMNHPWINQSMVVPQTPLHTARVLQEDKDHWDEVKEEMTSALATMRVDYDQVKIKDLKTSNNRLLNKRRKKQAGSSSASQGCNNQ
Aurora kinase B, sequence (Q96GD4 whole entry): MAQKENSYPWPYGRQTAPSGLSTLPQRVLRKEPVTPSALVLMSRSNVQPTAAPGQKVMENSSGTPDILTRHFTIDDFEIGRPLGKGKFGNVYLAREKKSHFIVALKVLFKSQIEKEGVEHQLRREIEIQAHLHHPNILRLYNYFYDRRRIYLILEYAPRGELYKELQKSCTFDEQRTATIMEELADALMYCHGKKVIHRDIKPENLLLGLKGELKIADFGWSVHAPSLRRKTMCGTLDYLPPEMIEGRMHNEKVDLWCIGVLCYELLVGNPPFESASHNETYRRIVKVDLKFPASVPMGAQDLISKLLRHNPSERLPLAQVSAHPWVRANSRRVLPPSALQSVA
Ribosomal protein S6 kinase beta-1, sequence (P23443 whole entry): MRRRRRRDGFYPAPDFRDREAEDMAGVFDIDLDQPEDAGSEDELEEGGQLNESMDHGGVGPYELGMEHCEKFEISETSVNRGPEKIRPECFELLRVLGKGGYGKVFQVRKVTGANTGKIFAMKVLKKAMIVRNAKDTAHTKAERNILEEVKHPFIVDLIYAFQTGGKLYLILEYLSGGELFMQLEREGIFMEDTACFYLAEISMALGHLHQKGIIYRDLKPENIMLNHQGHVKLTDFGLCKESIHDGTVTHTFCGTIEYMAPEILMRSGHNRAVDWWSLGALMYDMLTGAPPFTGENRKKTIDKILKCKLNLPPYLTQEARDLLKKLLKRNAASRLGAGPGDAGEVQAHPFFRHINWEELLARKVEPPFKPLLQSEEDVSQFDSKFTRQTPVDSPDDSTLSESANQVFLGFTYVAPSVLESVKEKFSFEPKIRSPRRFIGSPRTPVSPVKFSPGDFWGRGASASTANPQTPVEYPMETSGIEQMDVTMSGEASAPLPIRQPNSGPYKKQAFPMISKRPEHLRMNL
Megakaryocyte-associated tyrosine-protein kinase, sequence (P42679 whole entry): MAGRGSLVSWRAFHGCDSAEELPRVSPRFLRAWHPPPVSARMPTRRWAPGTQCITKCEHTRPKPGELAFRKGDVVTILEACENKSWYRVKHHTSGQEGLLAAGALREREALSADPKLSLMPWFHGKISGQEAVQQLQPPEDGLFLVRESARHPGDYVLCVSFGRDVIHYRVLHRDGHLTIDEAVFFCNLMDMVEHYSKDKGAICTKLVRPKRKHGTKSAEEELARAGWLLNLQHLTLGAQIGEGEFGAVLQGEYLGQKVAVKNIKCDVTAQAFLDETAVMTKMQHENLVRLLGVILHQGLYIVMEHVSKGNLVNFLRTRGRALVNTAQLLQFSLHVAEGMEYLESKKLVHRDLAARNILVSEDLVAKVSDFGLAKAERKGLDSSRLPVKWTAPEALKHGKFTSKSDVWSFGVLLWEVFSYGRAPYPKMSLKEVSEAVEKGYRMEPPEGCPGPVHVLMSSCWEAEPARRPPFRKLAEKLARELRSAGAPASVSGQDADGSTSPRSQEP

CCSc1c([N+](=O)[O-])c(=O)oc2ccccc12
active: AC50 [1] 23.4 µM

C[C@@H]1CN([C@@H](C)CO)C(=O)c2cccc(NC(=O)Nc3ccc(F)cc3)c2O[C@H]1CN(C)S(=O)(=O)c1ccc(Cl)cc1
active: AC50 [2] 7.24 µM | AC50 [3] 27.4 µM | AC50 [4] 95.8 µM

Cc1c(F)c(N2CCC(N)C2)nc2[nH]cc(C(=O)O)c(=O)c12 (stereo not given)
active: Ki [5] 2 µM | Ki [6] 2 µM | Ki [7] 5.01 µM | Ki [8] 7.94 µM | Ki [9] 6.31 µM | Ki [10] 3.16 µM
